Reference: patent US9381246B2, “Cancer therapy” (TriAct Therapeutics, Inc., priority 2013, dated 2016)
Entries after “also recorded” stand apart in the source; their conditions may differ.

Legend:
IGF1R [1] = molecular target: T1, IGF1R (Homo sapiens, UniProt P08069); assay: ATP binding competition assay
Method: Next, competition with ATP was determined directly by employing an assay previously validated to quantify the Km for small molecule kinase inhibitors compete for ATP binding to various kinases (Goldstein et al. 2008).
Target sequence in this assay (P08069 999-1274 limits assumed): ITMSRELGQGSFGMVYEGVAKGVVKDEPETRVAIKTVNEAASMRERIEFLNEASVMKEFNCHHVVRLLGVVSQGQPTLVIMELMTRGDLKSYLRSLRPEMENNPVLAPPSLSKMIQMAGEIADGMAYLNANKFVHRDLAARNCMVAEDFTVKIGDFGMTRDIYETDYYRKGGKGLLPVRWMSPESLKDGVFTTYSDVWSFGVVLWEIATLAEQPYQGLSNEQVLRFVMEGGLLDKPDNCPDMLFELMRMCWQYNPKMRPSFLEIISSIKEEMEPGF

NSCLC xenograft = NSCLC xenograft tumor growth (FIG. 16); format: in vivo; details: 3 weeks post-tumor challenge
Source text: FIG. 16. […] Tumor volume is shown (y axis) at […], 2.5 and 3 weeks post tumor challenge (x axis).

EGFR [2] = molecular target: EGFR (Homo sapiens, UniProt P00533); assay: EGFR kinase inhibition / substrate phosphorylation (FIG. 6, 7); format: biochemical
Sequence of EGFR (Homo sapiens, UniProt P00533) (P00533 25-1210): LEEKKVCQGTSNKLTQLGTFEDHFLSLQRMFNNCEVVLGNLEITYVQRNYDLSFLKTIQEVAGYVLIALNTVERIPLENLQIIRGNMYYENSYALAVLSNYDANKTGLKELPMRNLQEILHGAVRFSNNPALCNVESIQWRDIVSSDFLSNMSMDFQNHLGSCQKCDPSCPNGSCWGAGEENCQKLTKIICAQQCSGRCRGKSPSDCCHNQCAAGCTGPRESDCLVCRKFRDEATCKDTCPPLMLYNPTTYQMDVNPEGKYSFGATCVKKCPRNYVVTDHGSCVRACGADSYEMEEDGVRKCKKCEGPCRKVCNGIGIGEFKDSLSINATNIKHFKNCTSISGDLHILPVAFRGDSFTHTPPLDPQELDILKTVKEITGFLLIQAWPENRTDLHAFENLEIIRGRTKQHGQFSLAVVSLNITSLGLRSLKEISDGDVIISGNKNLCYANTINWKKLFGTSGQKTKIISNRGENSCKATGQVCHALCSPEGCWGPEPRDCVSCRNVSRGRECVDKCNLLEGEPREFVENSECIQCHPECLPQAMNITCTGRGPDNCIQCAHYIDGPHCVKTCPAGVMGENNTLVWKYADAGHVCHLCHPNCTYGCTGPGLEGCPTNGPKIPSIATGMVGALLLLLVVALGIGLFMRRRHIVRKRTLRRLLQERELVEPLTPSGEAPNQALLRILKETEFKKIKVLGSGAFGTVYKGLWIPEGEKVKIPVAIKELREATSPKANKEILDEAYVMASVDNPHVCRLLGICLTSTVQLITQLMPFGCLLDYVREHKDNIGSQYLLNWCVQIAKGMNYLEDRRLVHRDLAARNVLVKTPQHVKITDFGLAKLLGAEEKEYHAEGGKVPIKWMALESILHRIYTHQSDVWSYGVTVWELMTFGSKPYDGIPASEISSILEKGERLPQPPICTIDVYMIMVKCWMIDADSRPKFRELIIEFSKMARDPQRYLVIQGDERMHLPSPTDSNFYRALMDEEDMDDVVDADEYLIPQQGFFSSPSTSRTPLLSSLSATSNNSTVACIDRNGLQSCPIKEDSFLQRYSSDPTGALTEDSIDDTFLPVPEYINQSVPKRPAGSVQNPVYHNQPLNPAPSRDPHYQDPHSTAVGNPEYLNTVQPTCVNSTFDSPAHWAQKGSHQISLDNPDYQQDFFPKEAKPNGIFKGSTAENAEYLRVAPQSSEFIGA

EGFR [3] = assay: Total protein levels over time-course (FIG. 9); format: cell-based; details: 2, 4, 8 and 24 hours after treatment, compared to control
[4] = Phase 1b and 2a clinical data; format: in vivo
Source text: It provides a competitive advantage over previously described compounds in that the present inventors have identified a novel proposed mechanism of action (MOA), which has been market validated (EGFR & cMet) and clinically validated (IGFR). […] Dose selection has also been determined.

pancreatic xenograft = assay: Pancreatic xenograft tumor growth (FIG. 18); format: in vivo
Source text: FIG. 18. […] Tumor volume is shown (y axis) at various time days post tumor challenge (x axis).

Beagle dogs [5] = assay: Multi-dose toxicity (dose escalation), dogs; format: in vivo
HER2 = assay: Total protein levels over time-course (FIG. 9); format: cell-based; details: 2, 4, 8 and 24 hours after treatment, compared to control
Beagle dogs [6] = assay: Multi-dose oral toxicity, dogs; format: in vivo, dog
Method: A dog 28-day multi-dose toxicology assessment was also conducted.

in vivo [7] = details: CR: 1CD BR, rat, po
IGF-IR = assay: Total protein levels over time-course (FIG. 9); format: cell-based; details: 2, 4, 8 and 24 hours after treatment, compared to control
IGF1R [8] = molecular target: T1, IGF1R; assay: IGF1R kinase inhibition (FIG. 7); format: biochemical; details: data from 3 sources
in vivo [9] = details: New Zealand white, rabbit, po
KDR (VEGFR2) = KDR (VEGFR2) (Homo sapiens, UniProt P35968); assay: KDR (VEGFR2) kinase inhibition; format: biochemical; details: data from 3 sources
Sequence of KDR (VEGFR2) (P35968 20-1356): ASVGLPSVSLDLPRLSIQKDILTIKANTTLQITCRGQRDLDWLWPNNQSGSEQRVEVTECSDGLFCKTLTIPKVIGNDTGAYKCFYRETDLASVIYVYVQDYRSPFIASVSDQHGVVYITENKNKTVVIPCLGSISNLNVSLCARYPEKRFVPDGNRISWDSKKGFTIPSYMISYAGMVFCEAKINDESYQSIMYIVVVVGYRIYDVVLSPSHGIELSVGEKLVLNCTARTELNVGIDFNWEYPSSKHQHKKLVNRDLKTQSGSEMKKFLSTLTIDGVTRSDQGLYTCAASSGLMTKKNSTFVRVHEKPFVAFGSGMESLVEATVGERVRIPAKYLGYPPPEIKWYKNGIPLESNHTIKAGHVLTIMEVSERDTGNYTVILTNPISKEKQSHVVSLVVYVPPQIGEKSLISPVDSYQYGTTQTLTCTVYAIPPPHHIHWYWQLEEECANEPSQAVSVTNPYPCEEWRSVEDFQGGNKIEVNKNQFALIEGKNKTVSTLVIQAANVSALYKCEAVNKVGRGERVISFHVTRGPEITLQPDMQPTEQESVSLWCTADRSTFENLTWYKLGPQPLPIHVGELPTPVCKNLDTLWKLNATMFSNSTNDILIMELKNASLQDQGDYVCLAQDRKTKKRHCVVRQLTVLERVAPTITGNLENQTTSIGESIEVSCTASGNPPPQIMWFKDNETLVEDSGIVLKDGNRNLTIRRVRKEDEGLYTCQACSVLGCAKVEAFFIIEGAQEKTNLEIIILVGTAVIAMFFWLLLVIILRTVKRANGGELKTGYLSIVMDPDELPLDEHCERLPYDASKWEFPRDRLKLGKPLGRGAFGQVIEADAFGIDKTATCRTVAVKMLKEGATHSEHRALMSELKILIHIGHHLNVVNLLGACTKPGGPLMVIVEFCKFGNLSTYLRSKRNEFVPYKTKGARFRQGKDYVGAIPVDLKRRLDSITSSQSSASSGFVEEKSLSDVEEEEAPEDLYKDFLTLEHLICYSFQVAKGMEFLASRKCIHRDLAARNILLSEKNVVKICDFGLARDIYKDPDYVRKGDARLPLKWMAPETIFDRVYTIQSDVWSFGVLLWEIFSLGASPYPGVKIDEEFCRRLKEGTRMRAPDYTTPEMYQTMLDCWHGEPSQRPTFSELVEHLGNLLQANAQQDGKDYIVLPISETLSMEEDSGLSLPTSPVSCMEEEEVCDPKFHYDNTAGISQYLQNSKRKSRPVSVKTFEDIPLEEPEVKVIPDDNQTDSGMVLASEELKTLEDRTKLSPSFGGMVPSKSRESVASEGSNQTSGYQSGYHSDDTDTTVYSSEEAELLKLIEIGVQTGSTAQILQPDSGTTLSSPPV
Source text: The inhibition of these targets appears to be via a mechanism of action that is distinct from approved tyrosine kinase inhibitors (TKIs).

[10] = tested on: Additional NSCLC cell lines; assay: Growth of additional NSCLC cell lines (FIG. 12); format: cell-based; details: growth compared to untreated cells
Source text: FIG. 12. […] Growth is shown on the y axis compared to untreated cells.

breast xenograft = assay: Breast xenograft tumor growth (FIG. 17); format: in vivo
Source text: FIG. 17. […] Tumor volume is shown (y axis) at various time days post tumor challenge (x axis).

xenografts of Table 3 = assay: Efficacy in the xenografts of Table 3; format: in vivo; details: NCI-H209, AsPC-1, HPAC, SW850, MDA-MB435, Her-2 over expressing breast, LoVo, C4-I, neuroblastoma, NCI-H1264
IGF1R [11] = molecular target: T1, IGF1R; assay: IGF-1R tyrosine kinase assay with poly Glu4:Tyr1 (PGT) substrate, Lineweaver-Burke analysis; format: biochemical; design: made in house; host or cells: CHO-IGFR cells
Method: FIG. 1. […] Tyrosine kinase substrate Glu4: Tyr1 was bound to 96 well plates. […] Phosphorylation of substrate was determined by anti-phosphotyrosine ELISA**.
A Lineweaver-Burke analysis was used to calculate Km and Vmax for this reaction (FIG. 1).
Soluble IGF-1R, partially purified from CHO-IGFR cells were incubated with 10 nM IGF-1 in Kinase Buffer (50 mM, pH 7.4, 150 mM NaCl, 0.1% Triton X-100, 0.1% gelatin, 5 mM MnCl2, 8 mM MgCl2, and 1 mM PMSF) for 1 hr at room temperature (RT). […] Labeled ^32P-ATP (20 μM) was added in the presence of varying concentrations of the tyrosine kinase substrate poly Glu4:Tyr1 (PGT) (0.005 to 4 mg/ml). The reaction was stopped after 30 min at 22° C. by blotting 40 μl of the reaction mixture onto Whatman 3 MM papers. Filter papers were air dried and then subjected to the following washing protocol in 10% TCA with 10 mM Na4P2O7: 15 min at 4° C., 15 min at 20° C., 5 min boiling, 5 min boiling, followed by a short rinse with acetone. The filter papers were then allowed to air dry completely. ^32P incorporation into the substrate was determined by liquid scintillation counting.
Target sequence in this assay (P08069 741-1367 limits assumed): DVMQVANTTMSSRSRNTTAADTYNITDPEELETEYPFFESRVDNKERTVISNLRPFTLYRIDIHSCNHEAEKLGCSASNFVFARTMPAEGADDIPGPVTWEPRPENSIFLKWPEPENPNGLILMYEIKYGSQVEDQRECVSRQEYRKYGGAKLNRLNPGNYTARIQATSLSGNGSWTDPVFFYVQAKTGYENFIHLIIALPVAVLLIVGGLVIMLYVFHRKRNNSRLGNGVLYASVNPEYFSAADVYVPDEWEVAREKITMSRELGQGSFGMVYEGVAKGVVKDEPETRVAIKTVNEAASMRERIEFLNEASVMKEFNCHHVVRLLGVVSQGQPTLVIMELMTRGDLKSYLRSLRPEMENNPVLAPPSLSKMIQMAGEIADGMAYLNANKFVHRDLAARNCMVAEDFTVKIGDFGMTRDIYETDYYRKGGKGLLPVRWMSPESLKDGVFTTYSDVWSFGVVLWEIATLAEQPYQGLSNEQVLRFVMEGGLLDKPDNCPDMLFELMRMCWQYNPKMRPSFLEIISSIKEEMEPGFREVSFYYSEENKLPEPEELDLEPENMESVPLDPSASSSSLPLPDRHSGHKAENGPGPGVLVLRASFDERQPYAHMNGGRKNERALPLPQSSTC
Target sequence in this assay (P08069 31-736 partner limits assumed): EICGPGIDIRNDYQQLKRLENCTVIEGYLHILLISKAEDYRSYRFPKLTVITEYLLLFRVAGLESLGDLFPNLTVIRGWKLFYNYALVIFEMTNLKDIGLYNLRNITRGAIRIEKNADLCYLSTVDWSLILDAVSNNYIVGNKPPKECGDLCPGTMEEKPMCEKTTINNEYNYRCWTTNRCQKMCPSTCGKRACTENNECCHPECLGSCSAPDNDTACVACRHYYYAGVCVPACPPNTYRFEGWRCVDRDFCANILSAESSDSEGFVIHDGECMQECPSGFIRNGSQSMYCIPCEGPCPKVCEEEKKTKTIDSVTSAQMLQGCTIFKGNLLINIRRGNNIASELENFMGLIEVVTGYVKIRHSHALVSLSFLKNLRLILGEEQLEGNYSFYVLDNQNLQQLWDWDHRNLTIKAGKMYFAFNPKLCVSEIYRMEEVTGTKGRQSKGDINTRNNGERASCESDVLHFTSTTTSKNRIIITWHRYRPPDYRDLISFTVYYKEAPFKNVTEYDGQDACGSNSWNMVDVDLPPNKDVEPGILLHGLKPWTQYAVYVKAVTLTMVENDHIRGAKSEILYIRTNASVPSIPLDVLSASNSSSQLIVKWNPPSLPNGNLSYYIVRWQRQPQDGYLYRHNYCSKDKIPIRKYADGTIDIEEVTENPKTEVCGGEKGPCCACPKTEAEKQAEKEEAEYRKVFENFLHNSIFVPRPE
Target sequence in this assay (P05019 49-118 partner limits assumed): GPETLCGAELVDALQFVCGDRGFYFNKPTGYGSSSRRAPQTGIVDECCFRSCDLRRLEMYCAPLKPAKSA

c-met = c-met (Homo sapiens, UniProt P08581); assay: c-met kinase inhibition (FIG. 8); format: biochemical; details: data from 3 sources
[12] = tested on: New Zealand white rabbits; details: rabbit, in vivo, po, 14 days
[13] = tested on: second pancreatic xenograft; assay: Second pancreatic xenograft tumor growth (FIG. 19); format: in vivo
Source text: FIG. 19. […] Tumor volume is shown (y axis) at various time days post tumor challenge (x axis).

Met = assay: Total protein levels over time-course (FIG. 9); format: cell-based; details: 2, 4, 8 and 24 hours after treatment, compared to control
Sprague Dawley rats = assay: 28-day multi-dose oral toxicity, rats; format: in vivo, rat
Method: A rat 28-day multi-dose toxicology assessment was conducted at 15, 150, or 500 mg/kg/day.

[14] = tested on: Tarceva® resistant cell lines (Kras mutants, EGFR mutants, T790M mutation); assay: Growth of Tarceva resistant cell lines (FIG. 11); format: cell-based; details: growth compared to untreated cells
Source text: FIG. 11. […] Growth is shown on the y axis compared to untreated cells. A description of the mutations in the cell lines are identified below in Table 1.

H1975 NSCLC cells = assay: Soft agar colony formation; format: cell-based; details: H1975, Iressa®-resistant NSCLC cells (T790M), 11 days
Method: FIG. 10. […] Colony formation was determined and results reported normalized to control values as illustrated in FIG. 10.
Colony formation was determined and results reported normalized to control values as illustrated in FIG. 10.

[15] = dog 28-day multi-dose toxicology assessment

CC(Cc1ccc(O)c(O)c1)C(C)Cc1ccc(O)c(O)c1 (centres unmarked) [NDGA, nordihydroguaiaretic acid]
Amount of ATP bound to IGF-1R (IGF1R [1]; 30 μM NDGA): unchanged | Interference with binding of a labeled ATP analog to recombinant IGF-1R (IGF1R [1]; any concentration of NDGA up to 100 μM): did not interfere; also recorded: does not interfere | Tumor growth (tumor volume) compared to control (NSCLC xenograft): inhibit tumor growth | Inhibition of EGFR / substrate phosphorylation (EGFR [2]): inhibits substrate phosphorylation; also recorded: inhibition | Total protein level of EGFR (EGFR [3]): reduction in total protein levels | Safety and tolerability [4]: safe and well tolerated | Tumor growth (tumor volume) compared to control (pancreatic xenograft): inhibited growth | Tolerability in the repeated dose phase (Beagle dogs [5]; dog, in vivo, po, 300 mg/kg/day): fairly well tolerated, | Clinical findings in the escalation phase (Beagle dogs [5]; dogs, single oral (capsule) doses of 600 and 1200 mg/kg): Significant emesis, | Total protein level of HER2 (HER2): reduction in total protein levels | Necropsy findings (Beagle dogs [6]; [15]): intestinal mucosal reddening | No observable effect level (NOEL) (Beagle dogs [6]; [15]): 60 mg/kg/day | Tolerability of all of the other doses (Beagle dogs [6]; dog, in vivo): well-tolerated in this | LD50 at 14 days (in vivo [7]): > 5000 mg/kg | Total protein level of IGF-IR (IGF-IR): reduction in total protein levels | Inhibition of IGF1R (IGF1R [8]): inhibition | LD50 at 14 days (in vivo [9]; female): 1650 mg/kg | LD50 at 14 days (in vivo [9]; male): 2500 mg/kg | Inhibition of KDR (VEGFR2) (KDR (VEGFR2)): inhibition | Sensitivity of growth to NDGA [10]: sensitive | Tumor growth (tumor volume) compared to control (breast xenograft): inhibited growth | Efficacy in xenografts (xenografts of Table 3): efficacy was shown | Mechanism of action of IGF-1R inhibition (IGF1R [11]; varying PGT substrate, 20 μg/ml NDGA): substrate competition | Vmax (IGF1R [11]; with NDGA (+TT100), 10 nM IGF-1, 20 μM ATP): 2.0 pmol/min | Inhibition of cMet (c-met): inhibition | No-effect level [12]: dose of 1000 mg/kg | Tumor growth (tumor volume) compared to control [13]: inhibited growth | Total protein level of Met (Met): reduction in total protein levels | Findings at 150 and 500 mg/kg/day (Sprague Dawley rats; 150 and 500 mg/kg/day, 28 days, listed as TT-100): Stomach and duodenal hypertrophy/alterations; also recorded: adverse events | No-effect dose level (Sprague Dawley rats; oral (gavage), once daily for 28 days): 15 mg/kg/day | Sensitivity of growth to NDGA [14]: sensitive | Activity on colony formation in soft agar (H1975 NSCLC cells): active
